In the OligoGym collection:
HELM strings list units from the 5' end as sugar, base in round brackets, then linkage (d deoxyribose, r ribose, m 2'-O-methyl, p phosphodiester). Strings are as the collection lists them; they lack the last nucleoside at the 3' end of the tested compound. [moe] = 2'-O-(2-methoxyethyl) (MOE); [sp] = phosphorothioate linkage; [m5C] = 5-methylcytosine

These substances were tested against SMN2 (assay: mouse, dose not given). Conditions: ASO.

In order of rising 3 h FOB score:
1. RNA1{[moe]([m5C])[sp].[moe](A)[sp].[moe]([m5C])[sp].[moe](T)[sp].[moe](T)[sp].[moe](T)[sp].[moe]([m5C])[sp].[moe](A)[sp].[moe](T)[sp].[moe](A)[sp].[moe](A)[sp].[moe](T)[sp].[moe](G)p.[moe]([m5C])[sp].[moe](T)p.[moe](G)[sp].[moe](G)}$$$$ (last 3' nucleoside missing)  0 score 0-7
2. RNA1{[moe](A)[sp].[moe]([m5C])p.[moe](T)p.[moe](T)p.[moe](T)p.[moe]([m5C])[sp].[moe](A)[sp].[moe](T)[sp].[moe](A)[sp].[moe](A)[sp].[moe](T)[sp].[moe](G)p.[moe]([m5C])p.[moe](T)p.[moe](G)[sp].[moe](G)}$$$$ (last 3' nucleoside missing)  0 score 0-7
3. RNA1{[moe]([m5C])[sp].[moe](A)[sp].[moe]([m5C])p.[moe](T)p.[moe](T)p.[moe](T)p.[moe]([m5C])[sp].[moe](A)[sp].[moe](T)[sp].[moe](A)[sp].[moe](A)[sp].[moe](T)[sp].[moe](G)[sp].[moe]([m5C])[sp].[moe](T)[sp].[moe](G)[sp].[moe](G)}$$$$ (last 3' nucleoside missing)  0 score 0-7
4. RNA1{[moe]([m5C])[sp].[moe](A)p.[moe]([m5C])p.[moe](T)[sp].[moe](T)[sp].[moe](T)[sp].[moe]([m5C])[sp].[moe](A)[sp].[moe](T)[sp].[moe](A)[sp].[moe](A)[sp].[moe](T)[sp].[moe](G)[sp].[moe]([m5C])p.[moe](T)p.[moe](G)[sp].[moe](G)}$$$$ (last 3' nucleoside missing)  0 score 0-7
5. RNA1{[moe]([m5C])[sp].[moe](T)p.[moe](T)p.[moe](T)p.[moe]([m5C])[sp].[moe](A)[sp].[moe](T)[sp].[moe](A)[sp].[moe](A)[sp].[moe](T)[sp].[moe](G)p.[moe]([m5C])p.[moe](T)p.[moe](G)[sp].[moe](G)}$$$$ (last 3' nucleoside missing)  0 score 0-7
6. RNA1{[moe]([m5C])[sp].[moe](A)[sp].[moe]([m5C])[sp].[moe](T)[sp].[moe](T)[sp].[moe](T)[sp].[moe]([m5C])[sp].[moe](A)[sp].[moe](T)[sp].[moe](A)[sp].[moe](A)[sp].[moe](T)[sp].[moe](G)[sp].[moe]([m5C])[sp].[moe](T)[sp].[moe](G)[sp].[moe](G)[sp].[moe]([m5C])}$$$$ (last 3' nucleoside missing)  0 score 0-7
7. RNA1{[moe]([m5C])[sp].[moe](A)[sp].[moe]([m5C])[sp].[moe](T)[sp].[moe](T)[sp].[moe](T)[sp].[moe]([m5C])[sp].[moe](A)[sp].[moe](T)[sp].[moe](A)[sp].[moe](A)[sp].[moe](T)[sp].[moe](G)[sp].[moe]([m5C])[sp].[moe](T)[sp].[moe](G)[sp].[moe](G)[sp].[moe]([m5C])[sp].[moe](A)}$$$$ (last 3' nucleoside missing)  0 score 0-7
8. RNA1{[moe](A)[sp].[moe]([m5C])p.[moe](T)p.[moe](T)p.[moe](T)[sp].[moe]([m5C])[sp].[moe](A)[sp].[moe](T)[sp].[moe](A)[sp].[moe](A)[sp].[moe](T)[sp].[moe](G)[sp].[moe]([m5C])p.[moe](T)p.[moe](G)[sp].[moe](G)}$$$$ (last 3' nucleoside missing)  0 score 0-7
9. RNA1{[moe]([m5C])[sp].[moe](A)[sp].[moe]([m5C])[sp].[moe](T)[sp].[moe](T)[sp].[moe](T)[sp].[moe]([m5C])p.[moe](A)[sp].[moe](T)[sp].[moe](A)[sp].[moe](A)[sp].[moe](T)[sp].[moe](G)[sp].[moe]([m5C])[sp].[moe](T)p.[moe](G)[sp].[moe](G)}$$$$ (last 3' nucleoside missing)  0 score 0-7
10. RNA1{[moe]([m5C])[sp].[moe](A)p.[moe]([m5C])p.[moe](T)p.[moe](T)p.[moe](T)[sp].[moe]([m5C])[sp].[moe](A)[sp].[moe](T)[sp].[moe](A)[sp].[moe](A)[sp].[moe](T)[sp].[moe](G)p.[moe]([m5C])p.[moe](T)p.[moe](G)[sp].[moe](G)}$$$$ (last 3' nucleoside missing)  0 score 0-7
11. RNA1{[moe]([m5C])[sp].[moe](T)p.[moe](T)p.[moe](T)[sp].[moe]([m5C])[sp].[moe](A)[sp].[moe](T)[sp].[moe](A)[sp].[moe](A)[sp].[moe](T)[sp].[moe](G)[sp].[moe]([m5C])p.[moe](T)p.[moe](G)[sp].[moe](G)}$$$$ (last 3' nucleoside missing)  0.25 score 0-7
12. RNA1{[moe]([m5C])[sp].[moe](T)[sp].[moe](T)[sp].[moe](T)p.[moe]([m5C])[sp].[moe](A)[sp].[moe](T)[sp].[moe](A)p.[moe](A)[sp].[moe](T)[sp].[moe](G)[sp].[moe]([m5C])p.[moe](T)[sp].[moe](G)[sp].[moe](G)}$$$$ (last 3' nucleoside missing)  0.75 score 0-7
13. RNA1{[moe](T)[sp].[moe](T)[sp].[moe]([m5C])[sp].[moe](A)[sp].[moe]([m5C])[sp].[moe](T)[sp].[moe](T)[sp].[moe](T)[sp].[moe]([m5C])[sp].[moe](A)[sp].[moe](T)[sp].[moe](A)[sp].[moe](A)[sp].[moe](T)p.[moe](G)[sp].[moe]([m5C])p.[moe](T)[sp].[moe](G)}$$$$ (last 3' nucleoside missing)  1 score 0-7
14. RNA1{[moe]([m5C])[sp].[moe](T)[sp].[moe](T)[sp].[moe](T)[sp].[moe]([m5C])[sp].[moe](A)p.[moe](T)p.[moe](A)p.[moe](A)p.[moe](T)p.[moe](G)[sp].[moe]([m5C])[sp].[moe](T)[sp].[moe](G)[sp].[moe](G)}$$$$ (last 3' nucleoside missing)  1 score 0-7
15. RNA1{[moe](T)[sp].[moe](T)[sp].[moe]([m5C])[sp].[moe](A)[sp].[moe]([m5C])[sp].[moe](T)[sp].[moe](T)[sp].[moe](T)[sp].[moe]([m5C])p.[moe](A)[sp].[moe](T)[sp].[moe](A)[sp].[moe](A)[sp].[moe](T)[sp].[moe](G)[sp].[moe]([m5C])p.[moe](T)[sp].[moe](G)}$$$$ (last 3' nucleoside missing)  2 score 0-7
16. RNA1{[moe](T)[sp].[moe]([m5C])[sp].[moe](A)[sp].[moe]([m5C])[sp].[moe](T)[sp].[moe](T)[sp].[moe](T)[sp].[moe]([m5C])[sp].[moe](A)[sp].[moe](T)[sp].[moe](A)p.[moe](A)[sp].[moe](T)[sp].[moe](G)p.[moe]([m5C])[sp].[moe](T)[sp].[moe](G)}$$$$ (last 3' nucleoside missing)  2 score 0-7
17. RNA1{[moe]([m5C])[sp].[moe](T)[sp].[moe](T)[sp].[moe](T)[sp].[moe]([m5C])[sp].[moe](A)[sp].[moe](T)[sp].[moe](A)[sp].[moe](A)[sp].[moe](T)[sp].[moe](G)[sp].[moe]([m5C])[sp].[moe](T)[sp].[moe](G)[sp].[moe](G)}$$$$ (last 3' nucleoside missing)  2.88 score 0-7
18. RNA1{[moe](T)[sp].[moe]([m5C])p.[moe](A)[sp].[moe]([m5C])[sp].[moe](T)[sp].[moe](T)[sp].[moe](T)[sp].[moe]([m5C])[sp].[moe](A)[sp].[moe](T)[sp].[moe](A)[sp].[moe](A)[sp].[moe](T)[sp].[moe](G)[sp].[moe]([m5C])[sp].[moe](T)[sp].[moe](G)}$$$$ (last 3' nucleoside missing)  3.25 score 0-7
19. RNA1{[moe](A)[sp].[moe](T)[sp].[moe](T)[sp].[moe]([m5C])[sp].[moe](A)[sp].[moe]([m5C])[sp].[moe](T)[sp].[moe](T)[sp].[moe](T)[sp].[moe]([m5C])[sp].[moe](A)[sp].[moe](T)[sp].[moe](A)[sp].[moe](A)[sp].[moe](T)[sp].[moe](G)[sp].[moe]([m5C])[sp].[moe](T)}$$$$ (last 3' nucleoside missing)  3.5 score 0-7
20. RNA1{[moe](A)[sp].[moe](G)[sp].[moe](A)[sp].[moe](T)[sp].[moe](T)[sp].[moe]([m5C])[sp].[moe](A)[sp].[moe]([m5C])[sp].[moe](T)[sp].[moe](T)[sp].[moe](T)[sp].[moe]([m5C])[sp].[moe](A)[sp].[moe](T)[sp].[moe](A)[sp].[moe](A)[sp].[moe](T)[sp].[moe](G)[sp].[moe]([m5C])}$$$$ (last 3' nucleoside missing)  3.5 score 0-7
21. RNA1{[moe](A)[sp].[moe]([m5C])[sp].[moe](T)[sp].[moe](T)[sp].[moe](T)[sp].[moe]([m5C])[sp].[moe](A)[sp].[moe](T)[sp].[moe](A)[sp].[moe](A)[sp].[moe](T)[sp].[moe](G)[sp].[moe]([m5C])[sp].[moe](T)[sp].[moe](G)}$$$$ (last 3' nucleoside missing)  3.75 score 0-7
22. RNA1{[moe](T)[sp].[moe]([m5C])[sp].[moe](A)[sp].[moe]([m5C])[sp].[moe](T)[sp].[moe](T)[sp].[moe](T)[sp].[moe]([m5C])[sp].[moe](A)[sp].[moe](T)[sp].[moe](A)[sp].[moe](A)[sp].[moe](T)[sp].[moe](G)p.[moe]([m5C])[sp].[moe](T)[sp].[moe](G)}$$$$ (last 3' nucleoside missing)  3.75 score 0-7
23. RNA1{[moe](A)[sp].[moe](T)[sp].[moe](T)[sp].[moe]([m5C])[sp].[moe](A)[sp].[moe]([m5C])[sp].[moe](T)[sp].[moe](T)[sp].[moe](T)[sp].[moe]([m5C])[sp].[moe](A)[sp].[moe](T)[sp].[moe](A)[sp].[moe](A)[sp].[moe](T)[sp].[moe](G)[sp].[moe]([m5C])[sp].[moe](T)[sp].[moe](G)}$$$$ (last 3' nucleoside missing)  4 score 0-7
24. RNA1{[moe](A)[sp].[moe](T)[sp].[moe](T)[sp].[moe]([m5C])[sp].[moe](A)[sp].[moe]([m5C])[sp].[moe](T)[sp].[moe](T)[sp].[moe](T)[sp].[moe]([m5C])[sp].[moe](A)[sp].[moe](T)[sp].[moe](A)[sp].[moe](A)[sp].[moe](T)[sp].[moe](G)[sp].[moe]([m5C])p.[moe](T)[sp].[moe](G)}$$$$ (last 3' nucleoside missing)  4 score 0-7
